In US8372967B2, “Compounds and methods for modulating expression of GCCR” (Isis Pharmaceuticals, Inc., priority 2006, dated 2013):
Strand notation (5' to 3'): a small letter for the sugar, then the base; units joined by * are phosphorothioate-linked, units joined directly phosphodiester-linked; [ ] holds rarer units or linkages, { } end groups; capitals alone tell only the bases. e = 2'-O-(2-methoxyethyl) (MOE); [5mC] = 5-methylcytosine; d = 2'-deoxy (DNA)

Experiments:
DGAT2 mRNA = test: Antisense inhibition of DGAT2 in A10 cells, 75 nM (Table 81); assay type: cell-based, rat; conditions: approximately 24 hours
Method: Short antisense compounds targeted to a DGAT2 nucleic acid were tested for their effects on DGAT2 mRNA in vitro. Cultured A10 cells in a 96-well plate were treated with 75 nM of short antisense compound. After a treatment period of approximately 24 hours, RNA was isolated from the cells and DGAT2 mRNA levels were measured by quantitative real-time PCR, as described herein. DGAT2 mRNA levels were adjusted according to total RNA content as measured by RIBOGREEN®. Results are presented as percent inhibition of DGAT2, relative to untreated control cells in Table 81.

rat DGAT2 mRNA = test: Dose-dependent inhibition of DGAT2 in A10 cells (Tables 82, 83); assay type: cell-based
Method: Additional short antisense compounds targeted to DGAT2 mRNA were tested in vitro in a dose-response experiment. A10 cells were prepared as described above and treated with 6.25, 12.5, 25.0, 50.0, 100.0, and 200.0 nM short antisense compounds to determine if DGAT2 inhibition occurs in a dose-dependent manner. […] Results are presented as percent inhibition, relative to untreated control cells.
Additional short antisense compounds targeted to DGAT2 mRNA were tested in vitro. A10 cells were prepared as described above and treated with 0.62, 1.85, 5.56, 16.67, 50.0, and 150.0 nM short antisense compounds to determine if DGAT2 inhibition occurs in a dose-dependent manner. DGAT2 mRNA was measured using quantitative real-time PCR, as described herein. […] Results are presented as percent inhibition of rat DGAT2, relative to untreated control cells.

Row | Substance | % Control (DGAT2 mRNA) [% Control] | percent inhibition of rat DGAT2 (rat DGAT2 mRNA; 0.62 nM (Table 83)) [%] | percent inhibition of rat DGAT2 (rat DGAT2 mRNA; 1.85 nM (Table 83)) [%] | percent inhibition of rat DGAT2 (rat DGAT2 mRNA; 5.56 nM (Table 83)) [%] | percent inhibition of rat DGAT2 (rat DGAT2 mRNA; 16.67 nM (Table 83)) [%] | percent inhibition of rat DGAT2 (rat DGAT2 mRNA; 50 nM (Table 83)) [%] | percent inhibition of rat DGAT2 (rat DGAT2 mRNA; 150 nM (Table 83)) [%]
1 | 372491 (antisense eA*e[5mC]*eA*dT*dG*dA*dG*dG*dA*dT*dG*dA*d[5mC]*eA*e[5mC]*eT) [compound 372491] | 80 | – | – | – | – | – | –
2 | 372500 (antisense eG*eT*eG*dT*dG*dT*d[5mC]*dT*dT*d[5mC]*dA*d[5mC]*d[5mC]*eA*eG*e[5mC]) [compound 372500] | 16 | 0 | 0 | 0 | 18 | 64 | 88
3 | 372501 (antisense eT*eT*eG*dT*dG*dT*dG*dT*d[5mC]*dT*dT*d[5mC]*dA*e[5mC]*e[5mC]*eA) [compound 372501] | 28 | 1 | 5 | 10 | 11 | 25 | 68
4 | 372503 (antisense eG*e[5mC]*eA*dG*dG*dT*dT*dG*dT*dG*dT*dG*dT*e[5mC]*eT*eT) [compound 372503] | 35 | 7 | 10 | 4 | 25 | 54 | 80
